ChEMBL document CHEMBL5512688 (J Med Chem, 2024)
pIC50: −log10 of the molar value.

Experiments:
[1] = tested on: LoVo; assay: Antitumor activity against human LoVo cells xenografted in female BALB/c nude mouse assessed as tumor growth inhibition at 60 mg/kg, IG administered once daily for 27 days; format: functional; conditions: po, 648 h, time 27 day, read-out: TGI
[2] = Bioavailability in ICR mouse at 60 mg/kg, IG measured upto 24 hrs by LC-MS/MS analysis; format: ADME, organism-based; conditions: in vivo, po
[3] = Volume of distribution in ICR mouse at 1 mg/kg, iv measured upto 24 hrs by LC-MS/MS analysis; format: ADME, organism-based; conditions: in vivo
[4] = tested on: A-427; assay: Antiproliferative activity against human A-427 cells assessed as inhibition of cell growth incubated for 72 hrs by CCK-8 assay; format: functional, cell-based; conditions: A-427, 72 h
[5] = Acute toxicity in female C57 mouse assessed as body weight loss at 2000 mg/kg, IG measured for 7 days; format: organism-based; conditions: in vivo, po, 168 h, time 7 day
[6] = Metabolic stability in mouse liver microsome assessed as parent compound remaining measured at 60 mins by LCMS/MS analysis; format: ADME; conditions: liver microsomes, read-out: Stability
[7] = AUC (0 to 24 hrs) in ICR mouse at 60 mg/kg, IG measured upto 24 hrs by LC-MS/MS analysis; format: ADME, organism-based; conditions: in vivo, po
[8] = tested on: LoVo; assay: Antiproliferative activity against human LoVo cells assessed as inhibition of cell growth incubated for 72 hrs by CCK-8 method; format: functional, cell-based
[9] = AUC (0 to 24 hrs) in ICR mouse at 1 mg/kg, iv measured upto 24 hrs by LC-MS/MS analysis; format: ADME, organism-based; conditions: in vivo
[10] = Metabolic stability in human liver microsome assessed as parent compound remaining measured at 60 mins by LCMS/MS analysis; format: ADME; conditions: liver microsomes, read-out: Stability
[11] = Half life in ICR mouse at 1 mg/kg, iv measured upto 24 hrs by LC-MS/MS analysis; format: ADME, organism-based; conditions: in vivo
[12] = Clearance in ICR mouse at 1 mg/kg, iv measured upto 24 hrs by LC-MS/MS analysis; format: ADME, organism-based; conditions: in vivo
[13] = Half life in ICR mouse at 60 mg/kg, IG measured upto 24 hrs by LC-MS/MS analysis; format: ADME, organism-based; conditions: in vivo, po
[14] = target: T1, Wee1-like protein kinase (Homo sapiens, UniProt P30291); assay: Inhibition of human Wee1 (215 to 647 residues) using polyornithine/tyrosine (4:1) as substrate incubated for 5 mins in presence of ATP by micro beta plate reader analysis
T1 sequence (P30291 whole entry, the tested form may be a part): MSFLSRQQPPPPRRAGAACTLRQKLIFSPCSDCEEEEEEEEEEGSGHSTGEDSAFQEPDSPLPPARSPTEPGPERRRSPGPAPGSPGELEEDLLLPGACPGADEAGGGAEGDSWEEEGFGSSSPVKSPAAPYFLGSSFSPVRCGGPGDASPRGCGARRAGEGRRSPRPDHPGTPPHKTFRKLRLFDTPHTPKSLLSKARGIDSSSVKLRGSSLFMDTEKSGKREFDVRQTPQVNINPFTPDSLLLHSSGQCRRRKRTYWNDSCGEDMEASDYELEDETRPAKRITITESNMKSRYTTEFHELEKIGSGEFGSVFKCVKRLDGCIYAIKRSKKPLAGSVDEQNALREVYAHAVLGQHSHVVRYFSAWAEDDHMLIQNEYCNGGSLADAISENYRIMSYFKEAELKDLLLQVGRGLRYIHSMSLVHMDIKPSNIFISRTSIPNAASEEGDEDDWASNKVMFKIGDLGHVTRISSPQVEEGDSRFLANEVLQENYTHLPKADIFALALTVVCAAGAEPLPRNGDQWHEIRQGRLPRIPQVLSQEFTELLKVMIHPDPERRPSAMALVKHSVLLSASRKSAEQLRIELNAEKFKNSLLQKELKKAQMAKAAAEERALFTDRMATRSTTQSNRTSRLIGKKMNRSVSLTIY

[15] = target: T1, Wee1-like protein kinase; assay: Inhibition of Wee1 in human U2OS cells assessed as reduction in CDK1 phosphorylation measured for 1 hr by Western blot analysis; format: cell-based
[16] = Toxicity in female BALB/c nude mouse xenografted with human LoVo cells assessed as body weight loss at 60 mg/kg, IG administered once daily for 27 days; format: organism-based; conditions: in vivo, po, 648 h, time 27 day

SMILES | bioavailability [2] | Vd [3] | remaining at 1 h [6] | AUC(0-t) at 24 h [7] | pIC50 [8] | AUC(0-t) at 24 h [9] | remaining at 1 h [10] | half-life [11] | clearance [12] | half-life [13] | pIC50 [14] | pIC50 [15] | inhibition in vivo at 60 mg/kg [1] | pIC50 [4] | Activity [5] | Activity [16]
C=CCn1c(=O)c2cnc(Nc3ccc(N4CCN(C)CC4)cc3)nc2n1-c1cccc(C(C)(C)O)n1 [ADAVOSERTIB] | 82.1% | 16.1 L/kg | 9.67% | 2320 ng·h/mL | 6.48 | 47.1 ng·h/mL | 32.7% | 0.59 h | 350 mL/min/kg | 1.67 h | – | – | 70% | 6.51 | Toxic | –
C=CCn1c(=O)c2cnc(Nc3ccc(N4CCN(C)CC4)cc3)nc2n1-c1ccc2c(n1)[C@@](O)(CC)CC2 [AZENOSERTIB] | – | – | – | – | 6.50 | – | – | – | – | – | – | 6.25 | 80% | – | – | –
C=CCn1c(=O)c2cnc(Nc3ccc(N4CCN(CC)CC4)cc3)nc2n1-c1cccc(-c2cnccn2)n1 | 46.5% | 7.4 L/kg | 18% | 4200 ng·h/mL | 7.04 | 151 ng·h/mL | 65.2% | 0.8 h | 108 mL/min/kg | – | 8.80 | 6.47 | 69% | 7.06 | – | Toxic

Further compounds by rising pIC50 [8], results first:

bioavailability [2] | Vd [3] | remaining at 1 h [6] | AUC(0-t) at 24 h [7] | pIC50 [8] | AUC(0-t) at 24 h [9] | remaining at 1 h [10] | half-life [11] | clearance [12] | half-life [13] | pIC50 [14] | pIC50 [15] | SMILES | inhibition in vivo at 60 mg/kg [1] | pIC50 [4] | Activity [5] | Activity [16]
55.1% | 3.72 L/kg | 97.1% | 32400 ng·h/mL | 6.15 | 980 ng·h/mL | 88.9% | 2.39 h | 16.8 mL/min/kg | 3.71 h | 8.43 | 6.04 | C=CCn1c(=O)c2cnc(Nc3ccc(N4CCC(N5CCN(C)CC5)CC4)cc3)nc2n1-c1cccc(-c2ncccn2)n1 | – | 6.23 | – | –
83.1% | 1.98 L/kg | 59.4% | 58100 ng·h/mL | 6.26 | 1160 ng·h/mL | 71.2% | 1.65 h | 14.2 mL/min/kg | 3.9 h | 8.66 | 6.44 | C=CCn1c(=O)c2cnc(Nc3ccc(N4CCN(C)CC4)cc3)nc2n1-c1cccc(-c2ncc(C)cn2)n1 | 72% | 6.32 | – | –
91.3% | 13.4 L/kg | 82.3% | 6810 ng·h/mL | 6.61 | 124 ng·h/mL | 64.2% | 1.38 h | 128 mL/min/kg | 2.97 h | 7.59 | 6.78 | C=CCn1c(=O)c2cnc(Nc3ccc(N4[C@@H]5CC[C@H]4CN(C)C5)cc3)nc2n1-c1cccc(-c2ncccn2)n1 | 53% | 6.94 | – | –
48.5% | 5.6 L/kg | 78.5% | 20300 ng·h/mL | 6.78 | 699 ng·h/mL | 76.3% | 2.55 h | 23.8 mL/min/kg | – | 8.70 | 6.40 | C=CCn1c(=O)c2cnc(Nc3ccc(N4CCC(N5CCN(C)CC5)CC4)cc3)nc2n1-c1cccc(-c2cnccn2)n1 | 58% | 6.72 | – | –
